Assay results taken from PubChem BioAssay (NCI).
Where “and” joins values, the source holds several entries; their conditions need not be identical. Equal entries are not always repeated.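 Method: 48-hour compound exposure of cells in 96-well plates, five concentrations, linear interpolation of endpoints. Here, GI50 denotes the concentration required for 50% inhibition of growth. At the TGI there is no net growth.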

Legend:
Assay in all cases: NCI anticancer screen, dose series, 48 h
[1] = system: KM12 colon
[2] = system: DU-145 prostate
[3] = system: HS 578T breast
[4] = system: HOP-92 NSCLC
[5] = system: MDA-MB-231 breast
[6] = system: SF-268 CNS
[7] = system: SF-295 CNS
[8] = system: U251 CNS
[9] = system: SR leukemia
[10] = system: K-562 leukemia

Row | Compound | GI50 [1] | TGI [1] | GI50 [2] | TGI [2] | GI50 [3] | TGI [3] | GI50 [4] | TGI [4] | GI50 [5] | TGI [5] | GI50 [6] | TGI [6] | GI50 [7] | TGI [7] | GI50 [8] | TGI [8] | GI50 [9] | TGI [9] | GI50 [10] | TGI [10]
1 | Oc1c(Cl)cc(Cl)c2ccc(Cn3cc(-c4cc(C(F)(F)F)cc(C(F)(F)F)c4)nn3)nc12 | 10500 nM | 23.4 µM | 1.57 µM | 3.06 µM | 2.98 µM | 9.3 µM | 1.45 µM | 4.03 µM | 2 µM | 4.95 µM | 4.22 µM | 17.5 µM | 17 µM | 31 µM | 4.52 µM | 16.8 µM | 0.714 µM | 5.68 µM | 0.313 µM | > 100 µM
2 | Cc1ncc(C(=O)Nc2ccc(CN3CCN(C)CC3)c(C(F)(F)F)c2)cc1C#Cc1ccc(N)nc1 | 13.5 nM | 1.21 µM | 0.186 µM | 4.12 µM | 0.17 µM | 0.988 µM | 0.116 µM | 0.935 µM | 0.158 µM | 0.711 µM | 0.258 µM | 1.43 µM | 0.908 µM | 4.07 µM | 0.483 µM | 4.95 µM | 0.189 µM | 4.4 µM | 0.00333 µM | 24.5 µM
3 | NC(=O)[C@@H](CC1CC1)[C@@H](CCC(F)(F)F)C(=O)N[C@H]1N=C(c2ccccc2)c2cccc(F)c2NC1=O | > 100000 nM | > 100 µM | > 100 µM | > 100 µM | > 100 µM | > 100 µM | 19.3 µM | > 100 µM | 18.8 µM | 42.7 µM | > 100 µM | > 100 µM | > 100 µM | > 100 µM | > 100 µM | > 100 µM | 12 µM | > 100 µM | 46.9 µM | > 100 µM
4 | O=c1c2cc(-c3ccccc3)sc2ncn1Cc1ccc(Cl)c(Cl)c1 | 320 nM | 6.38 µM | 32.9 µM | > 100 µM | 11 µM | 45.1 µM | 16.2 µM | 40.5 µM | 3.92 µM | 25 µM | 26 µM | 80.3 µM | 12.3 µM | 30.6 µM | 15.5 µM | 38.6 µM | 5.14 µM | 17.9 µM | 20.7 µM | > 100 µM
5 | CCCCCCCCOC(=O)c1c(C)[nH]c(/C=C2\N=C(c3ccc[nH]3)C=C2OC)c1C | 35.5 nM | 1.97 µM | 0.0427 µM | 9.87 µM | 0.0494 µM | 0.578 µM | 0.0456 µM | 0.228 µM | < 0.0182 µM | 0.517 µM | 0.0498 µM | 7.2 µM | 0.0779 µM | 0.639 µM | 0.0258 µM | 1.65 µM | < 0.0169 µM | 1.05 µM | 0.0212 µM | 14.2 µM
6 | O=C(/C=C/c1ccc(O)c(O)c1)NCc1c[nH]c2ccccc12 | 66700 nM | > 100 µM | 78.3 µM | > 100 µM | 73.7 µM | > 100 µM | > 100 µM | > 100 µM | 75.9 µM | > 100 µM | 63.8 µM | > 100 µM | 62.4 µM | > 100 µM | 74 µM | > 100 µM | 10 µM | 37 µM | 68.1 µM | > 100 µM
7 | CN(C)CCNC(=O)c1ccc(-c2nc3ccc4[nH]ncc4c3c3c2C2CCC3C2)cc1 (configuration not stated) | 534 nM | 3.36 µM | 0.965 µM | 6 µM | 0.494 µM | 2.62 µM | 1.74 µM | 4.25 µM | 1.64 µM | 4.11 µM | 0.967 µM | 3.3 µM | 2.01 µM | 5.39 µM | 1.17 µM | 8.89 µM | 0.254 µM | 2.65 µM | 1.29 µM | 9.4 µM
8 | COc1cccc(CN(C)c2ccc(CO)c(Cl)c2)c1 | 29800 nM | > 100 µM | 37.1 µM | > 100 µM | 43.6 µM | > 100 µM | 6.97 µM | 56.9 µM | 31 µM | > 100 µM | 44.5 µM | > 100 µM | 3.71 µM | > 66.2 µM | 3.32 µM | > 64.1 µM | 41.8 µM | > 100 µM | 7.56 µM | > 100 µM
9 | CNNC(=N\S(=O)(=O)c1cc(C)c(Cl)cc1SCc1ccccc1)/N=C/c1ccc([N+](=O)[O-])s1 | 3030 nM | > 100 µM | > 100 µM | > 100 µM | > 100 µM | > 100 µM | 10.9 µM | > 83.8 µM | > 56.7 µM | > 100 µM | > 100 µM | > 100 µM | > 87.7 µM | > 100 µM | > 100 µM | > 100 µM | 41.2 µM | > 100 µM | 28.4 µM | > 100 µM
10 | CCN1CCN(Cc2ccc(NC(=O)Nc3nc4ccc(Oc5ccnc(C(=O)NC)c5)cc4s3)cc2C(F)(F)F)CC1 | 19 nM | 1.63 µM | 1.76 µM | 3.62 µM | 2.01 µM | 4.44 µM | 1.94 µM | 3.91 µM | 1.74 µM | 3.4 µM | 2 µM | 4.12 µM | 1.82 µM | 3.66 µM | 1.85 µM | 3.45 µM | 0.281 µM | 0.846 µM | 0.0514 µM | 1.27 µM
11 | Cc1nc2ccc(Br)cc2c(=O)n1-c1ccc(NC2OCC(O)C(O)C2O)cc1 (configuration not stated) | 26300 nM and > 100000 nM | 68.4 µM and > 100 µM | – | > 100 µM | – | > 100 µM | 22.4 µM and > 100 µM | 64.2 µM and > 100 µM | 47.6 µM and > 100 µM | > 100 µM | – | > 100 µM | – | > 100 µM | – | – | 25 µM and 61 µM | 59.7 µM and > 100 µM | 17.3 µM and > 100 µM | > 100 µM
12 | O=C(/C=C/c1ccc(C(F)(F)F)cc1)Nc1ccc(C=C2c3ccccc3C(=O)c3ccccc32)cc1 | 2330 nM | 40.6 µM | 30.5 µM | > 100 µM | 13.1 µM | > 100 µM | 1.49 µM | 22.4 µM | 16 µM | > 100 µM | 14.3 µM | > 100 µM | 4.24 µM | > 100 µM | 5.69 µM | 60.7 µM | 0.772 µM | 41.7 µM | – | –
